In one assay the test system is leukocytes. Briefly: Action on leukocyte-phagocytosis. To be noted: Mus musculus, 20 min, 37° C., read-out: potentiating action on leukocyte phagocytosis, ratio of phagocytic leukocytes relative to controls. The format is cell-based, mouse (ICR). The protocol: The experiment was performed in accordance with the method by Stossel et al. [Journal of Clinical Investigation, vol. 51, 615 (1972)].
(§1) ICR mice weighing 30-35 g were intraperitoneally administered with glycogen. Three hours later, the leukocytes in the abdominal cavity were collected. A leukocyte suspension of 5×10^6 cells/ml was prepared and the test compound was added to 200 μl of the cell suspension, followed by further addition of 100 μl of mouse serum and 100 μl of dead yeast (1×10^8 particles/ml) thereto. The mixture was incubated at 37° C. for 20 minutes. By observing more than 200 leukocytes in the reaction mixture under a microscope (400 magnifications), the number of the leukocytes which had phagocytosed at least one dead yeast was counted. The ratio of the number of phagocytic leukocytes treated with 0.1 μM of the test compounds relative to that of phagocytic leukocytes of controls was estimated. The potentiating actions on phagocytosis of the compounds of Examples 1 and 9 were 160% and 158% respectively.

In another assay the test system is E. coli 0-111 strain. Briefly: Infection-protective action (E. coli infection in cyclophosphamide-treated mice). Type of assay: in vivo, mouse (male ICR). Particulars: 3 mg/kg orally for 3 days; 7 days after E. coli inoculation; cyclophosphamide 200 mg/kg i.p. How it is done: Cyclophosphamide was intraperitoneally administered to male ICR mice (weighing 23-27 g, aged 5 weeks) at the dosage of 200 mg/kg. Four days later, […] of E. coli 0-111 strain was subcutaneously inoculated into the mice (Controls). The test compounds (3 mg/kg) were orally administered to the mice for 3 days from the following day of the administration of cyclophosphamide. The survival rate of the treated mice relative to controls 7 days after the inoculation of E. coli was compared.

The subject of the next assay is peritoneal macrophages. Briefly: Action on macrophage-phagocytosis. The format is cell-based. Particulars: Rattus norvegicus, read-out: potentiating action on macrophage phagocytosis, relative ratio of phagocytic macrophages. How it is done:
as §1
Casein sodium was intraperitoneally administered to rats. Three to four days later, peritoneal macrophages were collected. The phagocytosis was examined, and the relative ratio of phagocytic macrophages of the rat treated with 0.1 μM of the test compound was calculated in the same manner as Experimental Example 4. The potentiating actions on phagocytosis of the compounds of Examples 2, 8 and 10 were 146%, 167% and 148% respectively.

Assay [1] relates to amnesia induced by electroconvulsive shock. Briefly: Action on experimental amnesia (electroconvulsive shock, step-through passive avoidance). The format is in vivo, mouse (male ddY). Particulars: Mus musculus, ip; i.p. immediately after ECS; latency 3 h after acquisition trial; read-out: Anti-amnesia Action, MED. The protocol: The experiment was carried out in accordance with the method described by Sara in Psychopharmacologia, vol. 36, 59 (1974). Male ddY mice weighing 23-26 g, 20 animals per group, were used, and a step-through passive avoidance reflex practicing box consisting of illuminated chamber and dark chamber was used as the experimental apparatus. As the acquisition trial of passive avoidance reflex, the animals were placed in the illuminated chamber and then allowed to enter the dark one. As soon as the animals entered the dark chamber, footshock was applied to the mouse. Experimental amnesia was caused by applying electroconvulsive shock [ECS]soon after the acquisition trial. As the experimental trial, the animals were placed in the illuminated chamber three hours after the acquisition trial, and the time which the animals took to enter the dark chamber (latency) was measured until 600 seconds. The test compounds were administered intraperitoneally (i.p.) immediately after the application of ECS. For the evaluation of the effects, antagonistic actions against the reduction in latency, caused by the application of ESC were examined.

A further assay concerns the target benzodiazepine receptors. Briefly: Displacement of tritiated diazepam, benzodiazepine receptor binding (synaptosome fraction of cerebral cortex). Also on record: species or system rat (male Wistar). Particulars: displacement of 2 nM tritiated diazepam, rat cortex synaptosomes, pH 7.4, 0°C, 20 min; read-out: Affinity to BZP Receptors, Ki. How it is done:
The experiment for specific affinity to benzodiazepine receptors was carried out in accordance with the method described in Life Science, vol. 20, 2101 (1977).
The crude cyhaptosome fraction was isolated from the cerebral cortex of male Wistar rats aged 9-10 weeks, and was suspended in 50 mM Tris-hydrochloric acid buffer solution (pH 7.4) containing 120 mM sodium chloride and 5 mM potassium chloride. These suspensions were used for the experiment.
The test compounds in several different concentrations and tritiated diazepam (in final concentration of 2 nM) were added to the synaptosome suspensions, and the mixtures were incubated at 0° C. for 20 minutes. These suspensions were filtered with Whatman GF/B glassfiber filters. After the filters were washed with the above-mentioned buffer solution, the radioactivity left on the filters was measured with the use of a liquid scintillation counter.
Specific binding was determined by subtracting binding in the presence of 10^-6 M unlabeled diazepam from total binding.
According to the foregoing experimental method, the binding force to benzodiazepine receptors of the compound of the present invention is evaluated from its displacement ability for tritiated diazepam at its binding site, which is represented by Ki value (nM).

Each structure is given as a SMILES string.

In the case of `O=C1CC2CCc3sccc3C2=NN1c1ccccc1` (stereo not drawn) [Example 1, 8-phenyl-4,5,5a,6,7,8-hexahydrothieno[2,3h]cinnolin-7-one], in the assay on leukocytes, the activity at 0.1 µM amounted to 160%. Consider `O=C1CC2CCc3sccc3C2=NN1c1ccc(Cl)cc1` (stereo not drawn) [Example 2, 8-(4-chlorophenyl)4,5,5a,6,7,8-hexahydrothieno[2,3-h]cinnolin-7-one], for which the “effect on survival rate relative to controls” value in the assay with E. coli 0-111 strain is recorded as “significant increasing effects on survival rate”. Besides, in the assay with peritoneal macrophages, the activity at 0.1 µM was 146%. In general, Ki refers to the equilibrium dissociation constant of an inhibitor or competing ligand from its target. As to `O=C1CC2CCc3sccc3C2=NN1c1ccccn1` (stereo not drawn) [Example 3, 8-(2-pyridyl)4,5,5a,6,7,8-hexahydrothieno[2,3-h]cinnolin-7-one], the minimal effective dose in assay [1] amounted to 0.1 mg/kg. For the same compound, the Ki on benzodiazepine receptors is 0.28 µM.

Regarding `O=C1CC2CCc3sc(Br)cc3C2=NN1c1ccccc1` (stereo not drawn) [Example 4, 2-bromo-8-phenyl-4,5,5a,6,7,8-hexahydrothieno[2,3-h]-cinnolin-7-one], the minimal effective dose in assay [1] was 0.5 mg/kg. The Ki at benzodiazepine receptors amounted to 0.03 µM. Turning to `Cc1cc2c(s1)CCC1CC(=O)N(c3ccccc3)N=C21` (stereo not drawn) [Example 5, 2-methyl-8-phenyl-4,5,5a,6,7,8-hexahydrothieno[2,3-h]cinnolin-7-one], the minimal effective dose in assay [1] was 0.25 mg/kg. For the same compound, the Ki on benzodiazepine receptors was found to be 0.018 µM. Take `O=C1CC2CCc3sc(Br)cc3C2=NN1c1ccc(Cl)cc1` (stereo not drawn) [Example 6, 2-bromo-8-(4-chlorophenyl)-4,5,5a,6,7,8-hexahydrothieno[2,3-h]cinnolin-7-one]: the Ki on benzodiazepine receptors worked out at 0.012 µM. For `O=C1CC2CCc3sc(Br)cc3C2=NN1c1ccccn1` (stereo not drawn) [Example 7, 2-bromo-8-(2-pyridyl)-4,5,5a,6,7,8-hexahydrothieno[2,3-h]cinnolin-7-one], in assay [1], the minimal effective dose is below 0.5 mg/kg. Also, the inhibition constant Ki at benzodiazepine receptors worked out at 0.06 µM. `Cc1ccc(N2N=C3c4ccsc4CCC3CC2=O)cc1` (stereo not drawn) [Example 8, 8-(4-methylphenyl)-4,5,5a,6,7,8-hexahydrothieno[2,3-h]cinnolin-7-one]: in the assay on E. coli 0-111 strain, the “effect on survival rate relative to controls” value was “significant increasing effects on survival rate”. In the assay with peritoneal macrophages, the activity at 0.1 µM worked out at 167%. For `COc1ccc(N2N=C3c4ccsc4CCC3CC2=O)cc1` (stereo not drawn) [Example 9, 8-(4-methoxyphenyl)4,5,5a,6,7,8-hexahydrothieno[2,3-h]cinnolin-7-one], the activity at 0.1 µM in the assay with leukocytes is 158%. The minimal effective dose in assay [1] stood at 0.5 mg/kg. Also, the Ki on benzodiazepine receptors is 0.012 µM. For `Cc1ccc(N2N=C3c4cc(Br)sc4CCC3CC2=O)cc1` (stereo not drawn) [Example 10, 2-bromo-8-(4-methylphenyl)-4,5,5a,6,7,8-hexahydrothieno[2,3-h]cinnolin-7-one], in the assay with peritoneal macrophages, the activity at 0.1 µM was 148%. In addition, the Ki on benzodiazepine receptors was determined as 0.007 µM.

Regarding `COc1ccc(N2N=C3c4cc(Br)sc4CCC3CC2=O)cc1` (stereo not drawn) [Example 11, 2-bromo-8-(4-methoxyphenyl)-4,5,5a,6,7,8-hehahydrothieno[2,3-h]cinnolin-7-one], the “effect on survival rate relative to controls” value in the assay with E. coli 0-111 strain is “significant increasing effects on survival rate”. Moreover, on benzodiazepine receptors, the Ki came out at 0.0045 µM. `COc1ccc(N2N=C3c4cc(C)sc4CCC3CC2=O)cc1` (stereo not drawn) [Example 14, 2-Methyl-8-(4-methoxyphenyl)-4,5,5a,6,7,8-hexahydrothieno[2,3-h]cinnolin-7-one]: in assay [1], the minimal effective dose turned out to be 0.25 mg/kg. For the same compound, at benzodiazepine receptors, the Ki came out at 0.0051 µM.

On to `Cc1ccc(N2N=C3c4cc(C)sc4CCC3CC2=O)cc1` (stereo not drawn) [Example 24, 2-Methyl-8-(4-methylphenyl)-4,5,5a,6,7,8-hexahydrothieno[2,3-h]cinnolin-7-one], for which the Ki on benzodiazepine receptors turned out to be 0.01 µM.

Values taken from patent US4965264A, “Thienocinnoline compounds and their pharmaceutical use” (Yoshitomi Pharmaceutical Industries, Ltd., priority 1987, dated 1990).
